We go through one molecule from patent US6589956B2, “Benzenesulphonamide compounds” (Les Laboratoires Servier, priority 2001, dated 2003).

Assay [1] deals with platelets in human platelet-rich plasma (TXA2 agonist U46619-induced aggregation). The assay is described as follows: Platelet aggregation in man induced by the TXA2 agonist U46619. The settings on record: human PRP, U46619 1 μM, read-out: IC50, inhibition of platelet aggregation induced by the TXA2 agonist. The assay is classed as cell-based. The method, then: (§1) Venous blood is obtained from human volunteers who have not taken aspirin for at least 14 days prior to the experiment. The blood is removed over sodium citrate (0.109 M) (1 vol. of citrate over 9 vol. of blood). Platelet-rich plasma (PRP) is obtained by centrifugation (20° C.) at 200 g for 10 minutes. The number of platelets is on average. 250000 PL/mm^3. The PRP is stored at room temperature until the test and is used within 2 hours of having been taken. The TXA2 agonist U46619 is used at a concentration of 1 μM and 5-hydroxytryptamine is used at a concentration of 10 μM, the latter in the presence of 0.3 μM adenosine diphosphate and 1 μM adrenalin.

Assay [2] relates to platelets in human platelet-rich plasma (5-hydroxytryptamine-induced aggregation). Description: Platelet aggregation in man induced by 5-hydroxytryptamine. The class given is cell-based. The settings on record: human PRP, 5-hydroxytryptamine 10 μM in the presence of 0.3 μM adenosine diphosphate and 1 μM adrenalin, read-out: IC50, inhibition of platelet aggregation produced by 5-hydroxytryptamine. On the procedure: as §1

In general, IC50 refers to the concentration that inhibits the measured activity by half. Consider `O=C(O)CCn1cc(CCN2CCN(c3nsc4ccccc34)CC2)c2cc(CCNS(=O)(=O)c3ccc(Cl)cc3)ccc21` [Example 6, 3-[3-{2-[4-(1,2-Benzisothiazol-3-yl)-1-piperazinyl]ethyl}-5-(2-{[(4-chlorophenyl)sulphonyl]amino}ethyl)-1H-indol-1-yl]propanoic Acid], for which the IC50 in assay [1] was found to be 1.5 µM; in assay [2] it was 3 µM.
